Data on 5 compounds can be found in patent publication US7601373B2, “Equine feed product” (priority 2002, dated 2009).

Test [1] deals with foals, yearlings and adult horses. In words: Example Five: calcium feeding trials at various stages of development. In kind it is in vivo, horse. On the procedure: A number of trials were conducted on horses throughout various stages of development fed with varying levels of calcium. The first two trials were conducted on twelve foals over a nine month period. The trial began when the foals were aged three months. […] Each foal was fed 2.5 g of Calcium a day within a balanced diet for a period of three months. The Calcium dosage was then increased to 5.0 g a day for a further period of six months as the foals average weight had increased to 240 kg.
The third trial comprised a group of ten yearlings with average weight 425 kg body. The yearlings were fed 7.5 g of Calcium a day over a period of ten weeks. The fourth trial was conducted on adult horses with average body weight of 500 kg aged 18+ months. Each adult horse was fed 10.0 g of Calcium per day.

The next test relates to thoroughbred yearlings. The experiment in a line: Example Three: inorganic versus chelated copper with chelated zinc in feed supplement. Format: in vivo, horse. Conditions: 100 mg/day copper and 300 mg/day chelated zinc in 100 g/day supplement, ten weeks, grass high in molybdenum. On the procedure: A trial was conducted on ten thoroughbred yearlings (six colts and four fillies) using optimum levels of copper and zinc. The horses were divided into two groups with five horses in each group. The trials were conducted over a period of ten weeks. During this period the horses were stabled, each horse was handwalked for one hour a day and put to grass for three hours a day.
The copper used in the feed supplement for the first group of five horses was inorganic copper, copper sulfate whilst the copper used in the oat-balancing feed supplement for the second group was chelated copper. The horses has an average body weight of 425 kg. The horses were fed a combined diet of Ryegrass Hay, Rolled Irish Oats, Cooked Flaxseed and the feed supplement.
In trial one, 100 g of the oat balancing feed supplement was fed to each horse daily. There was 100 mg of inorganic copper in present in the oat balancing feed supplement.
Group 1: 100 mg/day Inorganic Copper & 300 mg/day Chelated Zinc
In the second group the five horses were fed the same combined diet however the copper present in the feed supplement was chelated copper. Again there was 100 mg of copper present in 100 g of the oat balancing feed supplement.
Group 2: 100 mg/day Chelated Copper & 300 mg/day Chelated Zinc

The test system of test [2] is poor performing racehorses. Conditions: six anaemic racehorses, within a matter of weeks; cited from earlier work.
For test [3], the system named is horses. In words: Example One: amino acid feeding trial with varied lysine; PCV, haemoglobin, coat colour, racecourse performance. Format: in vivo, horse. Conditions: 15 g/day lysine with 5 g/day methionine and 5 g/day threonine. On the procedure:
Lysine, methionine and threonine are essential amino acids. Trials were conducted on eleven horses (eight geldings and three fillies) where the horses were randomly split into three groups. Two groups contained four horses and the third group contained three horses. The horses varied in age between three and eight years old with an average body weight of 500 kg. The Packed Cell Volumes (PCVs) and haemoglobin levels of each horse were tested. Visual observations such as coat colour and racecourse performances were also monitored. In these Example all three amino acids were administered to the horses together as all three amino acids are essential. The quantities of methionine and threonine were constant for each group whilst the quantity of lysine was varied between the groups. Oats are deficient in lysine therefore it is necessary to boost the horses intake of lysine while maintaining a constant level of methionine and threonine
Quantities of Amino Acid Administered to Horses Daily

Test [4] relates to horses. In words: Example Four: magnesium supplementation, Stress Tetany and performance. Format: in vivo, horse. The text has this:
Magnesium is considered to be an essential daily mineral in equine diets. A deficiency of magnesium in the diet in conjunction with any condition that will produce stress can lead to Stress Tetany. An example of a stress-causing condition is transportation of the horse over long distances. […] Some weeks later the same horse was transported to another location. The journey lasted approximately four hours.
Trials conducted where the quantity of magnesium introduced into the horse was varied from 2 g/day of magnesium oxide to 4 g/day of magnesium oxide.

In the case of `[Ca+2]` [Calcium], the “bone development, limb formation and weight gain” value in test [1] (2.5 to 10.0 g/day Calcium according to age) was “clinically adequate bone development, correct limb formation and normal weight gain”. The “Average weight at 6 months” value in test [1] (Foals 3-6 months, 2.5 g/day Calcium, 118 Kg at 3 months) worked out at 240 Kg at 6 months. Further, the “Average weight at 12 months” value in test [1] (Foals 6-12 months, 5.0 g/day Calcium, 240 Kg at 6 months) stood at 375 Kg at 12 months. The “Average weight at 18 months” value in test [1] (Yearlings 12-18 months, 7.5 g/day Calcium, 375 Kg at 12 months) came to 475 Kg at 18 months.

In the case of `O=S(=O)([O-])[O-].[Cu+2]` [Inorganic Copper, copper sulfate], in the test on thoroughbred yearlings, the coat colour result was “poor coat colour”, the red cell production entry is on record as “decreased red cell production” and the thrive result was “lack of thrive”.

On to `N[C@@H](Cc1cc(I)c(Oc2cc(I)c(O)c(I)c2)c(I)c1)C(=O)O` [Thyroxine], for which the red cell parameters entry in test [2] is reported as “all elevated”.

On to `NCCCC[C@H](N)C(=O)O` [lysine], for which, in the test with horses [3], the “coat colour and racecourse performance” value was “optimum coat colour and racecourse performance”. For the same compound, in the test on horses [3] (average of horses, 500 kg), the PCV levels is reported as above 42 per cent per liter and the haemoglobin levels is above 14 g per deciliter.

For `[O]=[Mg]` [magnesium oxide], the performance entry in the test on horses [4] (4 g/day of magnesium oxide (varied from 2 g/day to 4 g/day)) is on record as “optimum performance”. For the same compound, the “temperament, weight and coat colour” value with horses [4] (magnesium oxide 4 g/day) was “improvement in the temperament of the horse was observed in conjunction with weight gain and better coat colour”.
